The record followed here is patent publication US20260374754A1, “N-((ISOQUINOLIN-6-YL)METHYL)-1H-PYRAZOLE-4-CARBOXAMIDE DERIVATIVES AS PLASMA KALLIKREIN INHIBITORS FOR THE TREATMENT OF HEREDITARY ANGIODEMA” (Takeda Pharmaceutical Company Limited, priority 2022, published 2026).

A value given as a limit tells only on which side of the number the result lay.

The experiment deals with human activated kallikrein enzyme (Homo sapiens, UniProt P03952). The experiment in a line: Inhibition of human activated plasma kallikrein, fluorogenic PFR-AMC substrate, 500 pM enzyme format. The experiment is classed as biochemical. The following applies: 500 pM activated kallikrein; 300 μM PFR-AMC; 30 min preincubation; 10 min room temperature; pH 7.5; read-out: Primary Dose Response Assay: Average EC50. The method, boiled down: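 500 pM activated kallikrein preincubated 30 min at room temperature with inhibitors in pH 7.5 Tris/EDTA/NaCl buffer with PEG-400 and Triton X-100. Reaction started with 300 μM PFR-AMC, run 10 min at room temperature; AMC fluorescence read at ex 380/em 460 nm.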
Sequence of human activated kallikrein enzyme (P03952 391-638 limits assumed): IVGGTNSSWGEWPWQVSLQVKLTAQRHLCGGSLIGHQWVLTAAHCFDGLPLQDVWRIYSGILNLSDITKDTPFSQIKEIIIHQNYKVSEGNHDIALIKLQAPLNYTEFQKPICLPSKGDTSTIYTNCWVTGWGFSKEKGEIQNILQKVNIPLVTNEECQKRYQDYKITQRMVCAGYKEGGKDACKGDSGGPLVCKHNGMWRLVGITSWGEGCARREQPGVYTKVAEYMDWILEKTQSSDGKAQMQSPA
Sequence of human activated kallikrein enzyme (P03952 20-390 partner limits assumed): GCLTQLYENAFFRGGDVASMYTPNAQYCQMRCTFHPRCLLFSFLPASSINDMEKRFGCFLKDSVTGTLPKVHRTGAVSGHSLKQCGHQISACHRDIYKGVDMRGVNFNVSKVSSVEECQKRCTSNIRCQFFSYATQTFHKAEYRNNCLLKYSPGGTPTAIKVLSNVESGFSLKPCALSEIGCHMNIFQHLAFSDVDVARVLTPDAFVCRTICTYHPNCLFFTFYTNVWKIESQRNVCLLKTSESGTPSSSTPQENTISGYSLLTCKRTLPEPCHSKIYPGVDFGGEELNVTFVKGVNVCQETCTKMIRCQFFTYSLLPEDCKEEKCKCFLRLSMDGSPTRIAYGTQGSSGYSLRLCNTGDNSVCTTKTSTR
One may read the EC50 as the concentration giving half of the maximal effect. On to `Cc1cc2c(N)nccc2c(C)c1CNc1nccc2cn(Cc3ccc(Cn4cccn4)cc3)nc12` [Example 260, 6-(((2-(4-((1H-pyrazol-1-yl)methyl)benzyl)-2H-pyrazolo[3,4-c]pyridin-7-yl)amino)methyl)-5,7-dimethylisoquinolin-1-amine], for which the concentration giving a half-maximal response (EC50) lay within 1 to 10 nM.
Turning to `Cc1cc2c(N)nccc2c(C)c1CNC(=O)c1cnn(Cc2ccc3ncccc3n2)c1` [Example 150, 1-((1,5-naphthyridin-2-yl)methyl)-N-((1-amino-5,7-dimethylisoquinolin-6-yl)methyl)-1H-pyrazole-4-carboxamide], the EC50 lay in the range of 10 to 100 nM.
`Cc1cc2c(N)nccc2c(C)c1CNc1cc(OCc2ccc(Cn3cccn3)cc2)c(C(F)(F)F)nn1` [Example 450, 6-(((5-((4-((1H-pyrazol-1-yl)methyl)benzyl)oxy)-6-(trifluoromethyl)pyridazin-3-yl)amino)methyl)-5,7-dimethylisoquinolin-1-amine]: the EC50 was in the range of 1 to 10 nM.
Consider `Cc1cc2c(N)nccc2c(C)c1CNc1cc(NCc2ccc(Cn3cccn3)cc2)cnn1` [Example 447, N^5-(4-((1H-pyrazol-1-yl)methyl)benzyl)-N^3-((1-amino-5,7-dimethylisoquinolin-6-yl)methyl)pyridazine-3,5-diamine], for which the EC50 was less than 1 nM.
Take `Cc1cc2c(N)nccc2c(C)c1CNC(=O)Nc1ncncc1OCc1cn2cc(C3CC3)ccc2n1` [Example 507, 1-((1-amino-5,7-dimethylisoquinolin-6-yl)methyl)-3-(5-((6-cyclopropylimidazo[1,2-a]pyridin-2-yl)methoxy)pyrimidin-4-yl)urea]: the 50% effective concentration (EC50) lay within 1 to 10 nM.
For `Cc1cc2c(N)nccc2c(C)c1CNc1cc(C(O)c2cn3cc(C4CC4)ccc3n2)ccn1` (stereo not shown) [Example 453, (2-(((1-amino-5,7-dimethylisoquinolin-6-yl)methyl)amino)pyridin-4-yl)(6-cyclopropylimidazo[1,2-a]pyridin-2-yl)methanol] the value was less than 1 nM; for `Cc1cc2c(N)nccc2c(C)c1CNC(=O)c1cnn(Cc2cnccn2)c1` [Example 86, N-((1-amino-5,7-dimethylisoquinolin-6-yl)methyl)-1-(pyrazin-2-ylmethyl)-1H-pyrazole-4-carboxamide], 100 to 1000 nM.
Regarding `Cc1cc2c(N)nccc2c(C)c1CNC(=O)c1ccnc(Cc2ccc3ncc(Cl)cc3c2)c1` [Example 197, N-((1-amino-5,7-dimethylisoquinolin-6-yl)methyl)-2-((3-chloroquinolin-6-yl)methyl)isonicotinamide], the EC50 is less than 1 nM.
Take `Cc1cc2c(N)nccc2c(C)c1CNc1cc(NCc2cn3cc(C4CC4)ccc3n2)cnc1C(=O)O` [Example 497, 3-(((1-amino-5,7-dimethylisoquinolin-6-yl)methyl)amino)-5-(((6-cyclopropylimidazo[1,2-a]pyridin-2-yl)methyl)amino)picolinic acid]: the EC50 was greater than 1000 nM.
Take `COc1ccc2nc(Cl)c(Cn3cc(C(=O)NCc4c(C)cc5c(N)nccc5c4C)cn3)cc2c1` [Example 109, N-((1-amino-5,7-dimethylisoquinolin-6-yl)methyl)-1-((2-chloro-6-methoxyquinolin-3-yl)methyl)-1H-pyrazole-4-carboxamide]: the EC50 lay in the range of 1 to 10 nM.
`Cc1cc2c(N)nccc2c(C)c1CNc1cc(NCc2ccc(Cc3ncccc3Cl)cc2)ncn1` [Example 365, N^4-((1-amino-5,7-dimethylisoquinolin-6-yl)methyl)-N^6-(4-((3-chloropyridin-2-yl)methyl)benzyl)pyrimidine-4,6-diamine]: the EC50 is 1 to 10 nM.
With `Cc1cc2nc(Cn3cc(C(=O)NCc4c(C)cc5c(N)nccc5c4C)cn3)cn2cc1C1CC1` [Example 146, N-((1-amino-5,7-dimethylisoquinolin-6-yl)methyl)-1-((6-cyclopropyl-7-methylimidazo[1,2-a]pyridin-2-yl)methyl)-1H-pyrazole-4-carboxamide], the EC50 was less than 1 nM.
Take `Cc1cc2c(N)nccc2c(C)c1CNC(=O)c1cnn(Cc2ccc(CC(=O)N(C)C)c(Cl)c2)c1` [Example 151, N-((1-amino-5,7-dimethylisoquinolin-6-yl)methyl)-1-(3-chloro-4-(2-(dimethylamino)-2-oxoethyl)benzyl)-1H-pyrazole-4-carboxamide]: the EC50 was less than 1 nM.
On to `Cc1cc2c(N)nccc2c(C)c1CNC(=O)c1cnn(C(C)c2ccc3ncc(Cl)cc3c2)c1` (stereo not shown) [Example 120, N-((1-amino-5,7-dimethylisoquinolin-6-yl)methyl)-1-(1-(3-chloroquinolin-6-yl)ethyl)-1H-pyrazole-4-carboxamide], for which the concentration giving a half-maximal response (EC50) is less than 1 nM.
For `Cc1ccccc1Cn1cc(C(=O)NCc2c(C)cc3c(N)nccc3c2C)cn1` [Example 40, N-((1-amino-5,7-dimethylisoquinolin-6-yl)methyl)-1-(2-methylbenzyl)-1H-pyrazole-4-carboxamide] the value was 100 to 1000 nM.
Next, `Cc1cc2c(N)nccc2c(C)c1CNc1cc(OCc2cnc(N3CCCC3)nc2)ncn1` [Example 298, 5,7-dimethyl-6-(((6-((2-(pyrrolidin-1-yl)pyrimidin-5-yl)methoxy)pyrimidin-4-yl)amino)methyl)isoquinolin-1-amine]: 10 to 100 nM.
For the compound `Cc1cc2c(N)nccc2c(C)c1CNc1cc(NCc2cn3c(C)c(Cl)ccc3n2)ncn1` [Example 330, N^4-((1-amino-5,7-dimethylisoquinolin-6-yl)methyl)-N^6-((6-chloro-5-methylimidazo[1,2-a]pyridin-2-yl)methyl)pyrimidine-4,6-diamine], the EC50 is less than 1 nM.
For the compound `Cc1cc2c(N)nccc2c(C)c1CNc1cc(OCc2ccc3ncc(Cl)cc3c2)cnn1` [Example 407, 6-(((5-((3-chloroquinolin-6-yl)methoxy)pyridazin-3-yl)amino)methyl)-5,7-dimethylisoquinolin-1-amine], the EC50 is less than 1 nM.
On to `Cc1cc2c(N)nccc2c(C)c1CNc1cc(NCc2ccc3ncc(Cl)cc3c2)ncn1` [Example 309, N^4-((1-amino-5,7-dimethylisoquinolin-6-yl)methyl)-N^6-((3-chloroquinolin-6-yl)methyl)pyrimidine-4,6-diamine], for which the EC50 is less than 1 nM.
Consider `Cc1cc2c(N)nccc2c(C)c1CNc1cc(OC(C)c2ccc(Cn3cccn3)cc2)cnn1` (single isomer, unassigned) [Example 277, (S*)-6-(((5-(1-(4-((1H-pyrazol-1-yl)methyl)phenyl)ethoxy)pyridazin-3-yl)amino)methyl)-5,7-dimethylisoquinolin-1-amine], for which the EC50 is 10 to 100 nM.
Turning to `Cc1cc2c(N)nccc2c(C)c1CNC(=O)c1cnn(C(F)(F)c2ccc(Br)cc2)c1` [Example I-469, N-((1-amino-5,7-dimethylisoquinolin-6-yl)methyl)-1-((4-bromophenyl)difluoromethyl)-1H-pyrazole-4-carboxamide], the EC50 fell in the range of 100 to 1000 nM.
`Cc1cc2c(N)nccc2c(C)c1CNC(=O)c1cnn(Cc2ccc(CC(=O)N3CCC3)c(Cl)c2)c1` [Example I-473, N-((1-amino-5,7-dimethylisoquinolin-6-yl)methyl)-1-(4-(2-(azetidin-1-yl)-2-oxoethyl)-3-chlorobenzyl)-1H-pyrazole-4-carboxamide]: the EC50 was less than 1 nM.
For `Cc1cc2c(N)nccc2c(C)c1CNc1cc(OCc2ccc(CC(=O)N(C)C)cc2)cnn1` [Example I-465, 2-(4-(((6-(((1-amino-5,7-dimethylisoquinolin-6-yl)methyl)amino)pyridazin-4-yl)oxy)methyl)phenyl)-N,N-dimethylacetamide] the value was less than 1 nM; for `Cc1cc2c(N)nccc2c(C)c1CNc1cc(OCc2ccc(CC(=O)N(C)C)cc2)ncn1` [Example I-466, 2-(4-(((6-(((1-amino-5,7-dimethylisoquinolin-6-yl)methyl)amino)pyrimidin-4-yl)oxy)methyl)phenyl)-N,N-dimethylacetamide], 1 to 10 nM.
For `Cc1cc2c(N)nccc2c(C)c1CNC(=O)c1cnn(CC(=O)N(C)c2ccccc2)c1` [Compound 155] the value was greater than 1000 nM.
On to `COc1cccc(Cn2cc(C(=O)NCc3c(C)cc4c(N)nccc4c3C)cn2)c1` [Example 43, N-((1-amino-5,7-dimethylisoquinolin-6-yl)methyl)-1-(3-methoxybenzyl)-1H-pyrazole-4-carboxamide], for which the half-maximal effective concentration (EC50) lay in the range of 10 to 100 nM.
For `Cc1cc2c(N)nccc2c(C)c1CNc1ccc2ncc(Cc3ccc4ccccc4c3)n2c1` [Example 522, 5,7-dimethyl-6-(((3-(naphthalen-2-ylmethyl)imidazo[1,2-a]pyridin-6-yl)amino)methyl)-isoquinolin-1-amine], the EC50 was greater than 1000 nM.
In the case of `Cc1cc2c(N)nccc2c(C)c1CNc1cc(OCc2ccc3ncccc3c2)cnn1` [Example 409, 5,7-dimethyl-6-(((5-(quinolin-6-ylmethoxy)pyridazin-3-yl)amino)methyl)isoquinolin-1-amine], the EC50 fell in the range of 1 to 10 nM.
In the case of `Cc1cc2c(N)nccc2c(C)c1CNC(=O)c1cnn(Cc2ccc(C3CC3)cc2)c1` [Example 29, N-((1-amino-5,7-dimethylisoquinolin-6-yl)methyl)-1-(4-cyclopropylbenzyl)-1H-pyrazole-4-carboxamide], the 50% effective concentration (EC50) fell in the range of 1 to 10 nM.
For `Cc1cc2c(N)nccc2c(C)c1CNC(=O)c1cnn(Cc2ccc(Cc3cccn(CC(F)(F)F)c3=O)cc2)c1` [Example 196, N-((1-amino-5,7-dimethylisoquinolin-6-yl)methyl)-1-(4-((2-oxo-1-(2,2,2-trifluoroethyl)-1,2-dihydropyridin-3-yl)methyl)benzy1)-1H-pyrazole-4-carboxamide], the EC50 was 1 to 10 nM.
For `COc1ccccc1Cn1cc(C(=O)NCc2c(C)cc3c(N)nccc3c2C)cn1` [Example 33, N-((1-amino-5,7-dimethylisoquinolin-6-yl)methyl)-1-(2-methoxybenzyl)-1H-pyrazole-4-carboxamide] the value was 100 to 1000 nM.
